The source of these data is patent US20080214582A1, “Purine Derivatives as Inhibitors of Receptor Tyrosine Kinase Activity” (priority 2005, published 2008).

The target of test [1] is Tie-2 kinase (Homo sapiens, UniProt Q02763). The experiment in a line: Tie-2 kinase inhibition (flashplate, poly(Glu,Tyr), 33P-ATP). It counts as biochemical. Here is the method: The TIE-2 tests can be carried out, for example, analogously to the methods indicated in WO 02/44156.
The assay determines the inhibiting activity of the substances to be tested in the phosphorylation of the substrate poly(Glu, Tyr) by Tie-2 kinase in the presence of radioactive ^33P-ATP. The phosphorylated substrate binds to the surface of a “flashplate” microtitre plate during the incubation time. After removal of the reaction mixture, the microtitre plate is washed a number of times and the radioactivity on its surface is subsequently measured. An inhibiting effect of the substances to be measured results in lower radioactivity compared with an undisturbed enzymatic reaction.

Test [2] has as its target T1, VEGFR (KDR) (Homo sapiens, UniProt P35968).
T1 construct: cloning the cytoplasmic domain of the KDR kinase as an in frame fusion at the carboxyl terminus of the GST gene; made in house; host or cells: Spodoptera frugiperda Sf21 insect cells, baculovirus vector pAcG2T
The experiment in a line: VEGF receptor kinase assay (pEY substrate, 33P incorporation). It counts as biochemical. The conditions noted are these: kinase inhibition. As to the method:
VEGF receptor kinase activity is measured by incorporation of radiolabelled phosphate into 4:1 polyglutamic acid/tyrosine substrate (pEY). The phosphorylated pEY product is trapped on a filter membrane and the incorporation of radiolabelled phosphate is quantified by scintillation counting.
The intracellular tyrosine kinase domains of human KDR (Terman, B. I. et al. Oncogene (1991) Vol. 6, pp. 1677-1683.) and Flt-1 (Shibuya, M. et al. Oncogene (1990) Vol. 5, pp. 519-524) were cloned as glutathione S-transferase (GST) gene fusion proteins. This was accomplished by cloning the cytoplasmic domain of the KDR kinase as an in frame fusion at the carboxyl terminus of the GST gene. Soluble recombinant GST-kinase domain fusion proteins were expressed in Spodoptera frugiperda (Sf21) insect cells (Invitrogen) using a baculovirus expression vector (pAcG2T, Pharmingen).
1. Sf21 cells were infected with recombinant virus at a multiplicity of infection of 5 virus particles/cell and grown at 27° C. for 48 hours. 2. All steps were performed at 4° C. Infected cells were harvested by centrifugation at 1000×g and lysed at 4° C. for 30 minutes with 1/10 volume of lysis buffer followed by centrifugation at 100000×g for 1 hour. The supernatant was then passed over a glutathione Sepharose acid (Pharmacia) equilibrated with lysis buffer and washed with 5 volumes of the same buffer followed by 5 volumes of wash buffer. Recombinant GST-KDR protein was eluted with wash buffer/10 mM reduced glutathione (Sigma) and dialysed against dialysis buffer.
1. Add 5 μl of inhibitor or control to the assay in 50% DMSO. 2. Add 35 μl of reaction mixture containing 5 μl of 10× reaction buffer, 5 μl of 25 mM ATP/10 μCi[^33P]ATP (Amersham) and 5 μl of 10× substrate. 3. Start the reaction by the addition of 10 μl of KDR (25 nM) in enzyme dilution buffer. 4. Mix and incubate at room temperature for 15 minutes. 5. Stop the reaction by the addition of 50 μl of stop solution. 6. Incubate at 4° C. for 15 minutes. 7. Transfer a 90 μl aliquot to filter plate. 8. Aspirate and wash 3 times with wash solution. 9. Add 30 μl of scintillation cocktail, seal plate and count in a Wallace Microbeta scintillation counter.

Each structure is given as a SMILES string.

T1 sequence (P35968 786-1356 limits assumed): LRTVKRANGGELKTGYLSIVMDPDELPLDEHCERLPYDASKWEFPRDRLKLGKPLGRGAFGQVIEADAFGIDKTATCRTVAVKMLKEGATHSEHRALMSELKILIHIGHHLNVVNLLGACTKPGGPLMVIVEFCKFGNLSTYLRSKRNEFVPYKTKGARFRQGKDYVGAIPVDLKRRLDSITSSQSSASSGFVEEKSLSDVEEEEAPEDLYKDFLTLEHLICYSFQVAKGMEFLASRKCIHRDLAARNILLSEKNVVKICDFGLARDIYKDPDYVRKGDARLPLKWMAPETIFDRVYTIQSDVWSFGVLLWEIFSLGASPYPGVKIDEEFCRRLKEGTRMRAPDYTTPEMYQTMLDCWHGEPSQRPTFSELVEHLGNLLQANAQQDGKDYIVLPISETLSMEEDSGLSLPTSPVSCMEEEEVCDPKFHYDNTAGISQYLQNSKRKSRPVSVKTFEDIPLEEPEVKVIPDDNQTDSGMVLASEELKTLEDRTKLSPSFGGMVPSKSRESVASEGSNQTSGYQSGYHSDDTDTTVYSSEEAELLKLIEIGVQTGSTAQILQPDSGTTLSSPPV
Tie-2 kinase, sequence (Q02763 23-1124): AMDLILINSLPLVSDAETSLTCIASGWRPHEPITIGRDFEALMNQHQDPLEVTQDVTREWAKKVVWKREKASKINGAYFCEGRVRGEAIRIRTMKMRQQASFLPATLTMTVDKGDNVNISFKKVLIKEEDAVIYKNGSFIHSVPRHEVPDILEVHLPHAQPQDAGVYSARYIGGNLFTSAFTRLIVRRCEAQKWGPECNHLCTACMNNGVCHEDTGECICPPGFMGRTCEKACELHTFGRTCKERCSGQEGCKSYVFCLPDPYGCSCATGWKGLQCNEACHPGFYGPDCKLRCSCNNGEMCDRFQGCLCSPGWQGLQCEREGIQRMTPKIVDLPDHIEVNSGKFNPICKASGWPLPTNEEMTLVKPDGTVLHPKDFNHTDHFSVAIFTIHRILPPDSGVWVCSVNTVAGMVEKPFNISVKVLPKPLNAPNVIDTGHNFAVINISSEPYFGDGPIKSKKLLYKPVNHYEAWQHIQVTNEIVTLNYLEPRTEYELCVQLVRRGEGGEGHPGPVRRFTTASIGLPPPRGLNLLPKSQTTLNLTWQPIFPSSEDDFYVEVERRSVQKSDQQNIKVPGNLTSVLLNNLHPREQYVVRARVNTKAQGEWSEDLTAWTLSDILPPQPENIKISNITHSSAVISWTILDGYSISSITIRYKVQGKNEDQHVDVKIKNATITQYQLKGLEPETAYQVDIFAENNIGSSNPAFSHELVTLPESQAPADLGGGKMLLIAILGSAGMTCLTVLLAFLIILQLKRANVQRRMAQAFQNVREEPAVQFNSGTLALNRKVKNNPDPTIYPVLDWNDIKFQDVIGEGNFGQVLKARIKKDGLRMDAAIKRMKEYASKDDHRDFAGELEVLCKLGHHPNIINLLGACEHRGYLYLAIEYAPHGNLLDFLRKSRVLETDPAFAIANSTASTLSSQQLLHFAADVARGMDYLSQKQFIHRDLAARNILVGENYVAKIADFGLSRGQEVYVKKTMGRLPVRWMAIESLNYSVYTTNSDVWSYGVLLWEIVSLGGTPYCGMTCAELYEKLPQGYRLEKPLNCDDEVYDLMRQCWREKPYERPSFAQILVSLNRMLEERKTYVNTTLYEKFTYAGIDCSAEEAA

In general, IC50 refers to the concentration that gives 50% inhibition. As for `Nc1ncnc2c1ncn2-c1ccc(NC(=O)Nc2cc(C(F)(F)F)ccc2OC2CCNC2)cc1` (stereo not shown) [Compound 1, 1-[4-(6-aminopurin-9-yl)phenyl]-3-[2-(pyrrolidin-3-yloxy)-5-trifluoromethylphenyl]urea], the IC50 in test [1] was 34.3 nM; in test [2] it was 88 nM.
Consider `Nc1ncnc2c1ncn2-c1ccc(NC(=O)Nc2cccc(C(F)(F)F)c2)cc1` [Compound 2, 1-[4-(6-aminopurin-9-yl)phenyl]-3-(3-trifluoromethylphenyl)urea], for which the IC50 in test [1] was found to be 14 nM; in test [2], 3.6 nM.
For `Nc1ncnc2c1ncn2-c1ccc(NC(=O)Nc2cc(C(F)(F)F)ccc2F)cc1` [Compound 4, 1-[4-(6-aminopurin-9-yl)phenyl]-3-(2-fluoro-5-trifluoromethylphenyl)urea], the values for the IC50 in test [1] and in test [2] were 49 nM and 5.7 nM, respectively.
As to `Nc1ncnc2c1ncn2-c1ccc(NC(=O)Nc2cccc(OC(F)(F)F)c2)cc1` [Compound 5, 1-[4-(6-aminopurin-9-yl)phenyl]-3-(3-trifluoromethoxyphenyl)urea], the 50% inhibitory concentration (IC50) in test [1] came to 35 nM; in test [2] it was 5 nM.
On the same counts, the results for `Nc1ncnc2c1ncn2-c1ccc(NC(=O)Nc2cc(C(F)(F)F)ccn2)cc1` [Compound 6, 1-[4-(6-aminopurin-9-yl)phenyl]-3-(4-trifluoromethylpyridin-2-yl)urea] are 100 nM and 4.6 nM.
Consider `Nc1ncnc2c1ncn2-c1ccc(NC(=O)Nc2cc(C(F)(F)F)ccc2-n2cncn2)cc1` [Compound 9, 1-[4-(6-aminopurin-9-yl)phenyl]-3-(2-[1,2,4]triazol-1-yl-5-trifluoromethylphenyl)urea], for which the values for the IC50 in test [1] and in test [2] were 12.5 nM and 7.7 nM, respectively.
Take `Nc1ncnc2c1ncn2-c1ccc(NC(=O)Nc2ccc(OC3CCNC3)c(C(F)(F)F)c2)cc1` (stereo not shown) [Compound 11, 1-[4-(6-aminopurin-9-yl)phenyl]-3-[4-(pyrrolidin-3-yloxy)-3-trifluoromethylphenyl]urea]: the IC50 stood at 110 nM in test [1] and 4.4 nM in test [2].
On to `CC(C)(C)c1cc(NC(=O)Nc2ccc(-n3cnc4c(N)ncnc43)cc2)no1` [Compound 15, 1-[4-(6-aminopurin-9-yl)phenyl]-3-(5-tert-butylisoxazol-3-yl)urea], for which the 50% inhibitory concentration (IC50) in test [1] was 19.5 nM; in test [2], 2 nM.
